Converted amounts (≈) assume the structure as drawn. Where two headings read alike, the source gives them in different places.
Columns and labels:
Experiment in all cases: Antibacterial spectra, agar dilution method
Type in all cases: cell-based
K. pneumoniae DT = conditions: Klebsiella pneumoniae
P. vulgaris IFO 3988 = conditions: Proteus vulgaris
Text: (§1) |(mcg./ml., agar dilution method)

E. coli T-7 = conditions: Escherichia coli
Text: as §1

S. aureus 1840 = test system: S. aureus 1840
Text: (§2) (mcg/ml., agar dilution method)
as §2
(§3) (mcg/ml, agar dilution method)
(§4) (mcg./ml., agar dilution method)

S. aureus 209P = conditions: for MIC: Staphylococcus aureus, 209P
Text: as §2, §2, §3, §4

E. coli 0-111 = test system: E. coli 0-111
Text: as §2, §2, §3, §4

E. coli NIHJ JC-2 = conditions: Escherichia coli
Text: as §2, §2, §3, §4

P. morganii Eb53 = conditions: Morganella morganii
Text: as §3, §4

[1] = IFO3988, P. vulgaris IFO 3988, agar dilution method, Table 11, read-out: Antibacterial spectra
[2] = T7, read-out: Antibacterial spectra
[3] = Staphylococcus aureus, 1840, read-out: Antibacterial spectra, S. aureus 1840, Table 11
[4] = read-out: Antibacterial spectra, S. aureus 209P, Table 11
[5] = Escherichia coli, 0111, E. coli 0-111, Table 11
[6] = NIHJJC2, read-out: Antibacterial spectra, E. coli NIHJ JC-2, Table 11
[7] = EB53, read-out: Antibacterial spectra
[8] = NIHJJC2, E. coli NIHJ JC-2, Table 11, read-out: Antibacterial spectra
[9] = P. morganii Eb53, agar dilution method, Table 11, read-out: Antibacterial spectra
[10] = T7, E. coli T-7, agar dilution method, Table 11, read-out: Antibacterial spectra
[11] = Staphylococcus aureus, 1840, read-out: Antibacterial spectra, S. aureus 1840, tables in the Examples
[12] = read-out: Antibacterial spectra, S. aureus 209P, tables in the Examples
[13] = Escherichia coli, 0111, E. coli 0-111, tables in the Examples

Row | SMILES | MIC (K. pneumoniae DT; Table 11) [µg/mL] | MIC (P. vulgaris IFO 3988; [1]) [µg/mL] | MIC (S. aureus 1840; [3]) [µg/mL] | MIC (S. aureus 209P; [4]) [µg/mL] | MIC (E. coli 0-111; [5]) [µg/mL] | MIC (E. coli NIHJ JC-2; [6]) [µg/mL] | MIC (E. coli NIHJ JC-2; [8]) [µg/mL] | MIC (P. morganii Eb53; [9]) [µg/mL] | MIC (E. coli T-7; [10]) [µg/mL] | also measured
1 | Nc1nc(CC(=O)NC2C(=O)N3C(C(=O)[O-])=C(CSc4nnc(SCCO)s4)CS[C@H]23)cs1.[Na+] (stereo partly drawn) [Compound 6, sodium 7-[2-(2-aminothiazol-4-yl)acetamido]-3-[2-(2-hydroxyethylthio)1,3,4-thiadiazol-5-yl)thiomethyl-3-cephem-4-carboxylate] | ≤ 0.2 | 0.39 | 0.78 | ≤ 0.2 | ≤ 0.2 | 0.78 |  |  |  | MIC (E. coli T-7; [2]): 12.5 µg/mL; MIC (P. morganii Eb53; [7]): 6.25 µg/mL
2 | Cc1nnc(SCC2=C(C(=O)O)N3C(=O)C(NC(=O)Cc4csc(N)n4)C3SC2)o1 (stereo not drawn) [Compound 38] | 0.39 (≈ 0.832 µM) |  | 0.78 (≈ 1.66 µM) | 0.39 (≈ 0.832 µM) | 0.39 (≈ 0.832 µM) |  | 1.56 (≈ 3.33 µM) | 25 (≈ 53.4 µM) |  | 
3 | CC(=O)OCC1=C(C(=O)[O-])N2C(=O)C(NC(=O)Cc3csc(=S)[nH]3)[C@H]2SC1.[Na+] (stereo partly drawn) [Example 21, sodium 7-[2-(2-thioxo-4-thiazolin-4-yl)-acetamido]-3-acetoxymethyl-3-cephem-4-carboxylate] |  |  |  |  |  |  |  |  |  | Antibacterial spectra (S. aureus 1840; S. aureus 1840, tables in the Examples): 1.56 µg/mL; Antibacterial spectra (S. aureus 209P; S. aureus 209P, tables in the Examples): < 0.78 µg/mL
4 | Cc1nnc(SCC2=C(C(=O)O)N3C(=O)C(NC(=O)Cc4csc(=O)[nH]4)[C@H]3SC2)s1 (stereo partly drawn) [Compound 55, 7-[2-(2-oxo-4-thiazolin-4-yl)acetamido]-3-(5-methyl-1,3,4-thiadiazol-2-yl)thiomethyl-3-cephem-4-carboxylic acid] | 1.56 (≈ 3.21 µM) |  | 0.78 (≈ 1.61 µM) | 0.2 (≈ 0.412 µM) | 0.78 (≈ 1.61 µM) |  | 1.56 (≈ 3.21 µM) |  |  | 
5 | Cc1csc(SCC2=C(C(=O)O)N3C(=O)C(NC(=O)Cc4csc(N)n4)C3SC2)n1 (stereo not drawn) [Compound 47] | 0.39 (≈ 0.806 µM) | 0.39 (≈ 0.806 µM) | 0.78 (≈ 1.61 µM) | ≤ 0.2 | 0.78 (≈ 1.61 µM) |  | 1.56 (≈ 3.23 µM) |  |  | MIC (E. coli T-7; [2]): 12.5 µg/mL (≈ 25.8 µM)
6 | Nc1nc(CC(=O)NC2C(=O)N3C(C(=O)O)=C(CSc4nnc(NCCS(=O)(=O)O)s4)CSC23)cs1 (stereo not drawn) [Compound 22] | ≤ 0.2 | ≤ 0.2 |  | 0.78 (≈ 1.31 µM) | ≤ 0.2 | 0.78 (≈ 1.31 µM) |  |  | 25 (≈ 42.1 µM) | MIC (S. aureus 1840; Staphylococcus aureus, S. aureus 1840, Table 11, read-out: Antibacterial spectra): 3.13 µg/mL (≈ 5.27 µM); MIC (P. morganii Eb53; [7]): 0.78 µg/mL (≈ 1.31 µM)
7 | CS(=O)(=O)Cc1nnc(SCC2=C(C(=O)O)N3C(=O)C(NC(=O)Cc4csc(N)n4)C3SC2)s1 (stereo not drawn) [Compound 25] | ≤ 0.2 | 0.39 (≈ 0.693 µM) | 0.78 (≈ 1.39 µM) | 0.39 (≈ 0.693 µM) | ≤ 0.2 | 0.39 (≈ 0.693 µM) |  | 25 (≈ 44.4 µM) | 100 (≈ 178 µM) | 
8 | O=C(Cc1csc(=O)[nH]1)NC1C(=O)N2C(C(=O)O)=C(CSc3nncs3)CS[C@H]12 (stereo partly drawn) [Example 4, 7-[2-(2-oxo-4-thiazolin-4-yl)acetamido]-3-(1,3,4-thiadiazol-2-yl)thiomethyl-3-cephem-4-carboxylic acid] |  |  |  |  |  |  |  |  |  | MIC (K. pneumoniae DT; tables in the Examples): 1.56 µg/mL (≈ 3.31 µM); MIC (S. aureus 1840; [11]): < 0.78 µg/mL; MIC (S. aureus 209P; [12]): < 0.78 µg/mL; MIC (E. coli 0-111; [13]): 1.56 µg/mL (≈ 3.31 µM)
9 | Nc1nc(CC(=O)NC2C(=O)N3C(C(=O)O)=C(CSc4nnc(C(F)(F)F)s4)CSC23)cs1 (stereo not drawn) [Compound 45] | 0.78 (≈ 1.45 µM) | 0.78 (≈ 1.45 µM) | 0.78 (≈ 1.45 µM) | ≤ 0.2 | 0.78 (≈ 1.45 µM) |  | 3.13 (≈ 5.81 µM) |  | 25 (≈ 46.4 µM) | 
10 | Cn1c(N)nnc1SCC1=C(C(=O)O)N2C(=O)C(NC(=O)Cc3csc(N)n3)C2SC1 (stereo not drawn) [Compound 31] | ≤ 0.1 | 0.2 (≈ 0.414 µM) | 1.56 (≈ 3.23 µM) | 0.78 (≈ 1.62 µM) | ≤ 0.1 | 0.2 (≈ 0.414 µM) |  |  | 3.13 (≈ 6.49 µM) | MIC (P. morganii Eb53; [7]): 1.56 µg/mL (≈ 3.23 µM)
11 | CN(C)C(=O)Cc1nnc(SCC2=C(C(=O)[O-])N3C(=O)C(NC(=O)Cc4csc(N)n4)[C@H]3SC2)s1.[Na+] (stereo partly drawn) [Compound 8, sodium 7-[2-(2-aminothiazol-4-yl)acetamido]-3-[2-(N,N-dimethylcarbamoylmethyl)-1,3,4-thiadiazol-5-yl]thiomethyl-3-cephem-4-carboxylate] | ≤ 0.2 |  | 0.78 | 0.39 | ≤ 0.2 | 0.78 |  |  |  | MIC (P. vulgaris IFO 3988; IFO3988, read-out: Antibacterial spectra): 0.39 µg/mL; MIC (E. coli T-7; [2]): 12.5 µg/mL; MIC (P. morganii Eb53; [7]): < 0.2 µg/mL
12 | CSCc1nnc(SCC2=C(C(=O)O)N3C(=O)C(NC(=O)Cc4csc(N)n4)C3SC2)s1 (stereo not drawn) [Compound 24] | ≤ 0.2 | 0.39 (≈ 0.735 µM) | 0.78 (≈ 1.47 µM) | ≤ 0.2 | 0.39 (≈ 0.735 µM) |  | 1.56 (≈ 2.94 µM) | 25 (≈ 47.1 µM) | 25 (≈ 47.1 µM) | 
13 | CN(C)CCn1nnnc1SCC1=C(C(=O)O)N2C(=O)C(NC(=O)Cc3csc(N)n3)C2SC1 (stereo not drawn) [Compound 28] | ≤ 0.2 | 0.78 (≈ 1.48 µM) | 1.56 (≈ 2.97 µM) | 0.39 (≈ 0.742 µM) | ≤ 0.2 | 0.39 (≈ 0.742 µM) |  |  | 3.13 (≈ 5.95 µM) | MIC (P. morganii Eb53; [7]): ≤ 0.2 µg/mL
14 | NC(=O)Cn1nnnc1SCC1=C(C(=O)O)N2C(=O)C(NC(=O)Cc3csc(N)n3)C2SC1 (stereo not drawn) [Compound 29] | ≤ 0.2 | ≤ 0.2 | 1.56 (≈ 3.05 µM) | 0.78 (≈ 1.52 µM) | ≤ 0.2 | 0.39 (≈ 0.762 µM) |  |  | 3.13 (≈ 6.12 µM) | MIC (P. morganii Eb53; [7]): ≤ 0.2 µg/mL
15 | Nc1nc(CC(=O)NC2C(=O)N3C(C(=O)O)=C(CSc4nnc(N)s4)CSC23)cs1 (stereo not drawn) [Compound 4] | 0.2 (≈ 0.412 µM) | 0.2 (≈ 0.412 µM) | 0.78 (≈ 1.61 µM) | 0.2 (≈ 0.412 µM) | 0.1 (≈ 0.206 µM) | 0.78 (≈ 1.61 µM) |  | 50 (≈ 103 µM) | 100 (≈ 206 µM) | 
16 | Cn1nnnc1SCC1=C(C(=O)O)N2C(=O)C(NC(=O)Cc3csc(=O)[nH]3)[C@H]2SC1 (stereo partly drawn) [Example 2, 7-[2-(2-oxo-4-thiazolin-4-yl)acetamido]-3-(1-methyltetrazol-5-yl)thiomethyl-3-cephem-4-carboxylic acid] |  |  |  |  |  |  |  |  |  | MIC (K. pneumoniae DT; tables in the Examples): < 0.78 µg/mL; MIC (S. aureus 1840; [11]): < 0.78 µg/mL; MIC (S. aureus 209P; [12]): < 0.78 µg/mL; MIC (E. coli 0-111; [13]): < 0.78 µg/mL; MIC (E. coli NIHJ JC-2; NIHJJC2, read-out: Antibacterial spectra, E. coli NIHJ JC-2, tables in the Examples): < 0.78 µg/mL
17 | Cn1nnnc1SCC1=C(C(=O)O)N2C(=O)C(NC(=O)Cc3csc(=S)[nH]3)C2SC1 (stereo not drawn) [Compound 64] | < 0.78 |  | 1.56 (≈ 3.21 µM) | < 0.78 | 1.56 (≈ 3.21 µM) |  |  |  |  | 
18 | CC(=O)CSc1nnc(SCC2=C(C(=O)O)N3C(=O)C(NC(=O)Cc4csc(N)n4)C3SC2)s1 (stereo not drawn) [Compound 23] | ≤ 0.2 | 0.39 (≈ 0.698 µM) | 0.78 (≈ 1.4 µM) | ≤ 0.2 | 0.39 (≈ 0.698 µM) |  | 1.56 (≈ 2.79 µM) | 3.13 (≈ 5.6 µM) | 25 (≈ 44.7 µM) | 
19 | Cn1ccnc1SCC1=C(C(=O)O)N2C(=O)C(NC(=O)Cc3csc(N)n3)C2SC1 (stereo not drawn) [Compound 44] | 0.39 (≈ 0.836 µM) | 0.39 (≈ 0.836 µM) | 1.56 (≈ 3.34 µM) | 0.39 (≈ 0.836 µM) | 0.39 (≈ 0.836 µM) | 0.78 (≈ 1.67 µM) |  |  |  | MIC (E. coli T-7; [2]): 6.25 µg/mL (≈ 13.4 µM)
20 | Nc1nc(CC(=O)NC2C(=O)N3C(C(=O)O)=C(CSc4nnc[nH]4)CSC23)cs1 (stereo not drawn) [Compound 41] | 0.2 (≈ 0.441 µM) |  | 0.78 (≈ 1.72 µM) | 0.39 (≈ 0.86 µM) | 0.78 (≈ 1.72 µM) | 0.78 (≈ 1.72 µM) |  | 25 (≈ 55.1 µM) |  | 
21 | Cc1cnc(SCC2=C(C(=O)O)N3C(=O)C(NC(=O)Cc4csc(N)n4)C3SC2)nc1N (stereo not drawn) [Compound 32] | 0.39 (≈ 0.79 µM) | 0.78 (≈ 1.58 µM) | 1.56 (≈ 3.16 µM) | 0.2 (≈ 0.405 µM) | 0.78 (≈ 1.58 µM) |  | 1.56 (≈ 3.16 µM) | 100 (≈ 203 µM) | 50 (≈ 101 µM) | 

From patent US4421912A, “Cephalosporin derivatives” (Takeda Chemical Industries, Ltd., priority 1973, dated 1983)
